What was measured:
[1] = Weight increase of nail clippings during immersion in a lotion (Example 1); design: species or system Human
Procedure: Solutions (lotions) were prepared, containing (v/v) 40% of distilled water, 40% of methyl ethyl ketone and 20% of isopropyl alcohol.
To these lotions were added salicylic acid, NAC, 1,4-dithiothreitol or mercaptoethylamine, in w/v concentrations as further specified in Table 1.
To distilled water were added glutathione, mercaptoethanol or urea, in w/v concentrations as further specified in Table 1.
(§1) Human nail clippings were immersed in the test and control lotions at ambient temperature and their weight increase expressed as % of their original weight.

[2] = Penetration of the hydrophilic dye eosine in nail clippings during immersion in a lotion (Example 2); assay type: in vitro ADME, Human; details: lotion with 17% NAC and 1% of eosine; immersion 48 hours at room temperature; microscopic freeze sections
Procedure: (§2) To a similar solution (lotion) as in Example 1, consisting of (v/v) 40% distilled water, 40% of methyl ethyl ketone and 20% of isopropyl alcohol, were added (w/v) 17% of NAC and 1% of eosine.
(§3) Human nail clippings were immersed in this liquid and in the same liquid without NAC (n = 2 x 3) during 48 hours at room temperature, after which the colour penetration was estimated on microscopic freeze sections.

[3] = Penetration of eosine in nail clippings after immersion in a lotion (pretreatment, Example 3); assay type: in vitro ADME, Human; details: pretreatment in NAC lotion lacking eosine, then 24 hours in lotion with 1% eosine lacking NAC
Procedure: as §2, §3
The same experimental set-up as in Example 2 was used, except that the nail clippings were first immersed in lotions lacking eosine, and subsequently during 24 hours in lotions containing 1% eosine but lacking NAC. n was again 2 x 3.

[4] = Weight increase of nail clippings on dorsal application of a film-forming lotion (Example 4); design: species or system Human; details: film-forming lotion with 20 parts of NAC painted on dorsal surface twice a day; after 3 days (no further change up to 6 days)
Procedure: (§4) A film-forming lotion was prepared, consisting by weight of 17.5 parts of distilled water, 17.5 parts of ethanol, 20 parts of acetone, 25 parts of polyvinylpyrrolidone VA-S630 and 20 parts of NAC. The control film-forming lotion lacked the NAC.
(§5) Human nail clippings (n = 2 x 3) were laid on pads soaked in saline, and the two types of film-forming lotion were painted on their dorsal surface twice a day. The weights of the clippings were determined after 3, 4, 5 and 6 days.

[5] = Penetration of eosine in nail clippings after dorsal application of a film-forming lotion (Example 4); assay type: in vitro ADME, Human; details: after 6 days of film-forming lotion treatment, then 24 hours in 1% eosine solution without NAC
Procedure: as §4, §5
After the above 6 days of treatment, the (2 x 3) clippings were rinsed and placed for 24 hours in a solution of 1% eosine, as described in Example 2 (without NAC), and then further processed for the microscopic estimation of dye penetration as in Example 2. The average penetration of the dye through the NAC-penetrated nails was 48% of the nail thickness, compared to 6% in the controls.

[6] = Effect of NAC-containing lotion on the penetration of 14C oxiconazole in nail discs (Example 6); assay type: in vitro ADME, human; details: 20% w/v NAC lotion with 1% w/v oxiconazole; 48 hours at 30°C
Procedure: A 20% w/v NAC-containing lotion and a control lotion were prepared as in Example 1.
To both these preparations was added 1% w/v of oxiconazole, containing a known amount (1 µCi per 30 µl) of radioactive ¹⁴C oxiconazole.
(§6) On human nail discs of 6 mm diameter were mounted 1.5 cm pieces of tubing of 4 mm outer and 3 mm inner diameter, in each of which was poured 30 µl of one of the above lotions (n = 2 x 3). The free (ventral) surfaces of the nail discs were kept moist on a pad soaked in saline.
(§7) After 48 hours of incubation at 30°C and the discs were sectioned (50 µm) parallel to their dorsal surface, using a freeze-microtome. Radioactivity was measured in the separate sections, after which the amount of penetrated oxiconazole was calculated.

[7] = Effect of pretreatment with NAC-containing film-forming lotion on the penetration of oxiconazole in nail discs (Example 7); assay type: in vitro ADME, Human
Procedure: A 20% w/v NAC-containing film-forming lotion and a control film-forming lotion were prepared as in Example 4.
Human nail discs of 6 mm diameter, resting with their ventral side on pads soaked with saline, were dorsally painted with these film-forming lotions (n = 2 x 3) twice daily during 5 days. Then the six nail discs were rinsed and mounted on pieces of tubing as in Example 6. Subsequently 20 mg of ¹⁴C oxiconazole was added to 30 ml of Oceral® lotion (i.e. 1% oxiconazole in an alcoholic base). Of this, 30 µl was poured into the tubings on top of the dorsal surfaces of the discs as in Example 6. The free (ventral) surfaces of the nail discs were again kept moist on a pad soaked in saline.
(§8) After 48 hours of incubation at 30°C and 60% relative humidity the discs were sectioned (50 µm) parallel to their dorsal surface, using a freeze-microtome. Radioactivity was measured in the separate sections, after which the amount of penetrated oxiconazole was calculated.

[8] = Effect of pretreatment with cream on the penetration of oxiconazole in nail discs (Example 8); assay type: in vitro ADME, Human; details: pretreatment with cream twice daily during 5 days, then Oceral lotion (1% oxiconazole) 48 hours at 30°C, 60% relative humidity
Procedure: A NAC-containing cream and a control cream were prepared as in Example 5.
Human nail discs of 6 mm diameter, resting with their ventral side on pads soaked with saline, were dorsally painted with these creams (n = 2 x 3) twice daily during 5 days. Then the six nail discs were rinsed and mounted on pieces of tubing as in Example 6. Subsequently 20 mg of ¹⁴C oxiconazole was added to 30 ml of Oceral® lotion (i.e. 1% oxiconazole in an alcoholic base). Of this, 30 µl was poured into the tubings on top of the dorsal surfaces of the discs as in Example 6. The free (ventral) surfaces of the nail discs were again kept moist on a pad soaked in saline.
as §8

[9] = Comparison of sulfhydryl compounds: weight increase of nail clippings during immersion in a lotion (Example 10); design: species or system human; details: 0.1 M in lotion of 50% v/v ethanol in distilled water
Procedure: as §1
The effects of 0.1 M of each of NAC (pH 2.3), 1,4-dithiothreitol (DTT, not claimed, pH 4.5) and ammonium thioglycolate (ATG, not claimed, pH 9.0), in a lotion consisting of 50% v/v ethanol in distilled water were compared, as in Example 1. The immersion period of the human nail clippings in the control and test lotions was 72 hours.

[10] = assay type: in vitro ADME, human
Procedure: as §6, §7
To lotions consisting of 50% v/v of ethanol in distilled water were added 0.1 M of NAC (pH 2.3), of 1,4-dithiothreitol (DTT, not claimed, pH 4.5) or of ammonium thioglycolate (ATG, not claimed, pH 9.0), as in Example 10. To all three solutions was also added 1% w/v of oxiconazole, containing a known amount (1 µCi per 30 µl) of radioactive ¹⁴C oxiconazole. These lotions were tested in an experimental set-up as in Examples 6 and 9.

## CC(=O)N[C@@H](CS)C(=O)O [NAC, N-acetyl-cysteine]
[1]; 5 % w/v in lotion, 1 hour
  Average % weight increase during immersion (hours): 23%
[1]; 5 % w/v in lotion, 3 hours
  Average % weight increase during immersion (hours): 32%
[1]; 5 % w/v in lotion, 6 hours
  Average % weight increase during immersion (hours): 38%
[1]; 5 % w/v in lotion, 24 hours
  Average % weight increase during immersion (hours): 47%
[1]; 5 % w/v in lotion, 48 hours
  Average % weight increase during immersion (hours): 60%
[1]; 5 % w/v in lotion, 72 hours
  Average % weight increase during immersion (hours): 70%
[1]; 10 % w/v in lotion, 1 hour
  Average % weight increase during immersion (hours): 24%
[1]; 10 % w/v in lotion, 3 hours
  Average % weight increase during immersion (hours): 33%
[1]; 10 % w/v in lotion, 6 hours
  Average % weight increase during immersion (hours): 38%
[1]; 10 % w/v in lotion, 24 hours
  Average % weight increase during immersion (hours): 59%
[1]; 10 % w/v in lotion, 48 hours
  Average % weight increase during immersion (hours): 67%
[1]; 10 % w/v in lotion, 72 hours
  Average % weight increase during immersion (hours): 79%
[1]; 20 % w/v in lotion, 1 hour
  Average % weight increase during immersion (hours): 23%
[1]; 20 % w/v in lotion, 3 hours
  Average % weight increase during immersion (hours): 30%
[1]; 20 % w/v in lotion, 6 hours
  Average % weight increase during immersion (hours): 37%
[1]; 20 % w/v in lotion, 24 hours
  Average % weight increase during immersion (hours): 60%
[1]; 20 % w/v in lotion, 48 hours
  Average % weight increase during immersion (hours): 91%
[1]; 20 % w/v in lotion, 72 hours
  Average % weight increase during immersion (hours): 110%
[1]; 40 % w/v in lotion, 1 hour
  Average % weight increase during immersion (hours): 24%
[1]; 40 % w/v in lotion, 3 hours
  Average % weight increase during immersion (hours): 33%
[1]; 40 % w/v in lotion, 6 hours
  Average % weight increase during immersion (hours): 38%
[1]; 40 % w/v in lotion, 24 hours
  Average % weight increase during immersion (hours): 71%
[1]; 40 % w/v in lotion, 48 hours
  Average % weight increase during immersion (hours): 110%
[1]; 40 % w/v in lotion, 72 hours
  Average % weight increase during immersion (hours): 154%
[2]
  average penetration of the dye, % of the total nail thickness: 27.5%
[3]
  average penetration of the dye: 19%
[4]
  weight increase of clippings: 34%
[5]
  average penetration of the dye, % of the nail thickness: 48%
[6]
  average total uptake of oxiconazole (expressed as a % of the total amount of oxiconazole applied): 4.94%
[7]; pretreatment with film-forming lotion 5 days, then 14C oxiconazole in Oceral lotion 48 hours
  average radioactivity in the three pads under the discs: 7.53%
[7]; pretreatment with film-forming lotion twice daily during 5 days, then Oceral lotion (1% oxiconazole) 48 hours at 30°C, 60% relative humidity
  average total uptake of oxiconazole (expressed as a % of the total amount of oxiconazole applied): 3.25%
[8]
  average total uptake of oxiconazole (expressed as a % of the total amount of oxiconazole applied): 4.0%
[9]
  Average % weight increase after immersion during 72 hours: 72%
[10]
  Average amount of oxiconazole (μg), Total: 15.17 µg
